Source: PubChem BioAssay (NCI)
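Compound exposure: 48 hours, 5 concentrations, 96-well plates. GI50 = concentration required for 50% inhibition of growth. TGI: total growth inhibition.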

Tests used:
Assay in all cases: NCI tumour cell line growth inhibition, 48 h
SF-295 CNS = test system: SF-295 CNS
A549 NSCLC = test system: A549 NSCLC
MALME-3M melanoma = test system: MALME-3M melanoma
NCI-H522 lung = test system: NCI-H522 lung
HOP-92 NSCLC = test system: HOP-92 NSCLC
HT29 colon = test system: HT29 colon
DU-145 prostate = test system: DU-145 prostate
NCI-H226 lung = test system: NCI-H226 lung
PC-3 prostate = test system: PC-3 prostate
NCI-H23 lung = test system: NCI-H23 lung
LOX IMVI melanoma = test system: LOX IMVI melanoma
HOP-62 NSCLC = test system: HOP-62 NSCLC
SK-MEL-28 melanoma = test system: SK-MEL-28 melanoma
SK-MEL-2 melanoma = test system: SK-MEL-2 melanoma
MOLT-4 leukemia = test system: MOLT-4 leukemia
ACHN renal = test system: ACHN renal
CAKI-1 renal = test system: CAKI-1 renal
HCT-15 colon = test system: HCT-15 colon
IGROV1 ovarian = test system: IGROV1 ovarian
T-47D breast = test system: T-47D breast
SN12C renal = test system: SN12C renal
COLO 205 colon = test system: COLO 205 colon
A498 renal = test system: A498 renal
TK-10 renal = test system: TK-10 renal
OVCAR-3 ovarian = test system: OVCAR-3 ovarian
MDA-MB-435 = test system: MDA-MB-435
SF-539 CNS = test system: SF-539 CNS
NCI/ADR-RES ovarian = test system: NCI/ADR-RES ovarian
SK-MEL-5 melanoma = test system: SK-MEL-5 melanoma
SNB-19 CNS = test system: SNB-19 CNS
SK-OV-3 ovarian = test system: SK-OV-3 ovarian
786-0 renal = test system: 786-0 renal
SNB-75 CNS = test system: SNB-75 CNS
K-562 leukemia = test system: K-562 leukemia
M14 melanoma = test system: M14 melanoma
CCRF-CEM leukemia = test system: CCRF-CEM leukemia
OVCAR-8 ovarian = test system: OVCAR-8 ovarian
U251 CNS = test system: U251 CNS
MDA-MB-231 breast = test system: MDA-MB-231 breast
RPMI-8226 leukemia = test system: RPMI-8226 leukemia
HL-60(TB) leukemia = test system: HL-60(TB) leukemia
RXF 393 renal = test system: RXF 393 renal
SW-620 colon = test system: SW-620 colon
UACC-62 melanoma = test system: UACC-62 melanoma
HS 578T breast = test system: HS 578T breast
BT-549 breast = test system: BT-549 breast
UACC-257 melanoma = test system: UACC-257 melanoma
OVCAR-4 ovarian = test system: OVCAR-4 ovarian
OVCAR-5 ovarian = test system: OVCAR-5 ovarian
MCF7 breast = test system: MCF7 breast
KM12 colon = test system: KM12 colon
SF-268 CNS = test system: SF-268 CNS
HCT-116 colon = test system: HCT-116 colon
HCC-2998 colon = test system: HCC-2998 colon
UO-31 renal = test system: UO-31 renal
SR leukemia = test system: SR leukemia
EKVX NSCLC = test system: EKVX NSCLC
NCI-H460 lung = test system: NCI-H460 lung

In the case of `CN1CCN(C(=O)/C=C/c2ccc([N+](=O)[O-])o2)CC1`, the GI50 (SF-295 CNS) is reported as 27.9 µM, the TGI (SF-295 CNS) is reported as > 100 µM and the GI50 (A549 NSCLC) is reported as 18.8 µM. For the same compound, the TGI (A549 NSCLC) was 41.5 µM, the GI50 (MALME-3M melanoma) was 3.76 µM and the TGI (MALME-3M melanoma) was 14.3 µM. It also gave a GI50 (NCI-H522 lung) of 2.72 µM, a TGI (NCI-H522 lung) of 5.74 µM and a GI50 (HOP-92 NSCLC) of 11.4 µM. The TGI (HOP-92 NSCLC) was 26.1 µM, the GI50 (HT29 colon) was 9.81 µM and the TGI (HT29 colon) was 37 µM. For the same compound, the GI50 (DU-145 prostate) was 9.33 µM, the TGI (DU-145 prostate) was 21.2 µM and the GI50 (NCI-H226 lung) was 22.4 µM. For the same compound, the TGI (NCI-H226 lung) was 60 µM, the GI50 (PC-3 prostate) was 21.6 µM and the TGI (PC-3 prostate) was > 100 µM. The GI50 (NCI-H23 lung) was 8.49 µM, the TGI (NCI-H23 lung) was 22 µM and the GI50 (LOX IMVI melanoma) was 4.46 µM. The TGI (LOX IMVI melanoma) was 17 µM, the GI50 (HOP-62 NSCLC) was 17.1 µM and the TGI (HOP-62 NSCLC) was 39.9 µM. It also gave a GI50 (SK-MEL-28 melanoma) of 9.59 µM, a TGI (SK-MEL-28 melanoma) of 49.3 µM and a GI50 (SK-MEL-2 melanoma) of 6.5 µM. It also gave a TGI (SK-MEL-2 melanoma) of 29.6 µM, a GI50 (MOLT-4 leukemia) of 10.7 µM and a TGI (MOLT-4 leukemia) of 93.4 µM. The GI50 (ACHN renal) was 3.29 µM, the TGI (ACHN renal) was 13.1 µM and the GI50 (CAKI-1 renal) was 10.6 µM. It also gave a TGI (CAKI-1 renal) of 34.3 µM, a GI50 (HCT-15 colon) of 3.14 µM and a TGI (HCT-15 colon) of 14.9 µM. For the same compound, the GI50 (IGROV1 ovarian) was 10.8 µM, the TGI (IGROV1 ovarian) was 36.4 µM and the GI50 (T-47D breast) was 18.1 µM. The TGI (T-47D breast) was 45.4 µM, the GI50 (SN12C renal) was 13.8 µM and the TGI (SN12C renal) was 27.9 µM. For the same compound, the GI50 (COLO 205 colon) was 3.76 µM, the TGI (COLO 205 colon) was 15 µM and the GI50 (A498 renal) was 16.8 µM. The TGI (A498 renal) was 34.3 µM, the GI50 (TK-10 renal) was 31.7 µM and the TGI (TK-10 renal) was > 100 µM. The GI50 (OVCAR-3 ovarian) was 12.9 µM, the TGI (OVCAR-3 ovarian) was 26.2 µM and the GI50 (MDA-MB-435) was 3.12 µM. For the same compound, the TGI (MDA-MB-435) was 14.9 µM, the GI50 (SF-539 CNS) was 15 µM and the TGI (SF-539 CNS) was 45 µM. The GI50 (NCI/ADR-RES ovarian) was 14.9 µM, the TGI (NCI/ADR-RES ovarian) was 52.5 µM and the GI50 (SK-MEL-5 melanoma) was 7.52 µM. For the same compound, the TGI (SK-MEL-5 melanoma) was 20.4 µM, the GI50 (SNB-19 CNS) was 38.1 µM and the TGI (SNB-19 CNS) was > 100 µM. The GI50 (SK-OV-3 ovarian) was 29 µM, the TGI (SK-OV-3 ovarian) was > 100 µM and the GI50 (786-0 renal) was 18.6 µM. For the same compound, the TGI (786-0 renal) was 36.7 µM, the GI50 (SNB-75 CNS) was 21.6 µM and the TGI (SNB-75 CNS) was 75.8 µM. It also gave a GI50 (K-562 leukemia) of 11 µM, a TGI (K-562 leukemia) of 40.4 µM and a GI50 (M14 melanoma) of 3.11 µM. It also gave a TGI (M14 melanoma) of 11.7 µM, a GI50 (CCRF-CEM leukemia) of 2.72 µM and a TGI (CCRF-CEM leukemia) of 27.9 µM. The GI50 (OVCAR-8 ovarian) was 18.5 µM, the TGI (OVCAR-8 ovarian) was > 100 µM and the GI50 (U251 CNS) was 17.1 µM. It also gave a TGI (U251 CNS) of 55.1 µM, a GI50 (MDA-MB-231 breast) of 14.3 µM and a TGI (MDA-MB-231 breast) of 34.7 µM. It also gave a GI50 (RPMI-8226 leukemia) of 16 µM, a TGI (RPMI-8226 leukemia) of 64.5 µM and a GI50 (HL-60(TB) leukemia) of 10.7 µM. The TGI (HL-60(TB) leukemia) was 34 µM, the GI50 (RXF 393 renal) was 2.88 µM and the TGI (RXF 393 renal) was 12.4 µM. It also gave a GI50 (SW-620 colon) of 15.8 µM, a TGI (SW-620 colon) of 37.1 µM and a GI50 (UACC-62 melanoma) of 11.1 µM. For the same compound, the TGI (UACC-62 melanoma) was 23.4 µM, the GI50 (HS 578T breast) was 46.5 µM and the TGI (HS 578T breast) was > 100 µM. It also gave a GI50 (BT-549 breast) of 10.1 µM, a TGI (BT-549 breast) of 21.8 µM and a GI50 (UACC-257 melanoma) of 7.78 µM. For the same compound, the TGI (UACC-257 melanoma) was 21.2 µM, the GI50 (OVCAR-4 ovarian) was 14.2 µM and the TGI (OVCAR-4 ovarian) was 27.9 µM. It also gave a GI50 (OVCAR-5 ovarian) of 22.3 µM, a TGI (OVCAR-5 ovarian) of 39.1 µM and a GI50 (MCF7 breast) of 10.9 µM. The TGI (MCF7 breast) was 38.1 µM, the GI50 (KM12 colon) was 24 µM and the TGI (KM12 colon) was > 100 µM. It also gave a GI50 (SF-268 CNS) of 20.9 µM, a TGI (SF-268 CNS) of 84.1 µM and a GI50 (HCT-116 colon) of 10.5 µM. The TGI (HCT-116 colon) was 22.4 µM, the GI50 (HCC-2998 colon) was 18.2 µM and the TGI (HCC-2998 colon) was 38.1 µM. It also gave a GI50 (UO-31 renal) of 13.4 µM, a TGI (UO-31 renal) of 30.1 µM and a GI50 (SR leukemia) of 4.23 µM. For the same compound, the TGI (SR leukemia) was 75.1 µM, the GI50 (EKVX NSCLC) was 23.2 µM and the TGI (EKVX NSCLC) was 87.6 µM. It also gave a GI50 (NCI-H460 lung) of 14.9 µM and a TGI (NCI-H460 lung) of 45.1 µM.
